Here are results for nine compounds from patent US11084800B2 (Achillion Pharmaceuticals, Inc., priority 2017, dated 2021).

Human Factor D, sequence (P00746 26-253): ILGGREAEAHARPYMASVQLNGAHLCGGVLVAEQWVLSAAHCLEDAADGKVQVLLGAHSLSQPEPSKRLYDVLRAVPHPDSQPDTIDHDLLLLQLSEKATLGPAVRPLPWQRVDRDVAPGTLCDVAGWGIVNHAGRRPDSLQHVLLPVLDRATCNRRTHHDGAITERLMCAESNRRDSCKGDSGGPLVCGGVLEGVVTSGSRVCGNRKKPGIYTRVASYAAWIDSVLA

The test has as its target Human Factor D (Homo sapiens (Human), UniProt P00746). The experiment in a line: Human Factor D Assay. In kind it is biochemical. The settings on record: Table 6; Factor D 80 nM, substrate Z-L-Lys-SBz; read-out: IC50. The gist of the method: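 Serum-purified Factor D (80 nM final) preincubated 5 min at room temperature with compound in 50 mM Tris, 1 M NaCl, pH 7.5. Z-L-Lys-SBz and DTNB added at 100 μM each; A405 followed every 30 s for 30 min. IC50 from nonlinear regression of rates versus concentration.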
By IC50 is commonly meant the midpoint of a concentration-inhibition curve. Turning to `CC(=O)c1nn(CC(=O)N2[C@H](C(=O)Nc3nc(Br)c(F)cc3C)C[C@@]3(C)C[C@@H]23)c2cnc(-c3cnc(N)nc3)cc12` [Compound 195, (1R,3S,5R)-2-(2-(3-Acetyl-5-(2-aminopyrimidin-5-yl)-1H-pyrazolo[3,4-c]pyridin-1-yl)acetyl)-N-(6-bromo-5-fluoro-3-methylpyridin-2-yl)-5-methyl-2-azabicyclo[3.1.0]hexane-3-carboxamide], the IC50 was under 1000 nM.
In the case of `CC(=O)c1nn(CC(=O)N2[C@H](C(=O)Nc3nc(OC(F)(F)F)ccc3C)C[C@@]3(C)C[C@@H]23)c2ccc(-c3cnc(C)nc3)cc12` [Compound 196, (1R,3S,5R)-2-(2-(3-Acetyl-5-(2-methylpyrimidin-5-yl)-1H-indazol-1-yl)acetyl)-5-methyl-N-(3-methyl-6-(trifluoromethoxy)pyridin-2-yl)-2-azabicyclo[3.1.0]hexane-3-carboxamide], the IC50 is under 1000 nM.
Take `CC(=O)c1nn(CC(=O)N2[C@H](C(=O)Nc3nc(Br)ccc3C)C[C@@]3(c4cnco4)C[C@@H]23)c2ccc(-c3cnc(C)nc3)cc12` [Compound 197, (1R,3S,5S)-2-(2-(3-Acetyl-5-(2-methylpyrimidin-5-yl)-1H-indazol-1-yl)acetyl)-N-(6-bromo-3-methylpyridin-2-yl)-5-(oxazol-5-yl)-2-azabicyclo[3.1.0]hexane-3-carboxamide]: the 50% inhibitory concentration (IC50) was under 1000 nM.
As to `COc1ncc(-c2cc3c(C(C)=O)nn(CC(=O)N4[C@H](C(=O)Nc5nc(Br)c(F)cc5C)C[C@@]5(C)C[C@@H]45)c3cn2)cn1` [Compound 198, (1R,3S,5R)-2-(2-(3-Acetyl-5-(2-methoxypyrimidin-5-yl)-1H-pyrazolo[3,4-c]pyridin-1-yl)acetyl)-N-(6-bromo-5-fluoro-3-methylpyridin-2-yl)-5-methyl-2-azabicyclo[3.1.0]hexane-3-carboxamide], the half-maximal inhibitory concentration (IC50) was under 1000 nM.
For the compound `CC(=O)c1nn(CC(=O)N2[C@H](C(=O)Nc3nc(Br)ccc3C)C[C@@]3(C)C[C@@H]23)c2cnc(-c3cnc(C)[n+]([O-])c3)cc12` [Compound 200, 5-(3-acetyl-1-(2-((1R,3S,5R)-3-((6-bromo-3-methylpyridin-2-yl)carbamoyl)-5-methyl-2-azabicyclo[3.1.0]hexan-2-yl)-2-oxoethyl)-1H-pyrazolo[3,4-c]pyridin-5-yl)-2-methylpyrimidine 1-oxide], the IC50 was under 1000 nM.
In the case of `CC(=O)c1nn(CC(=O)N2[C@H](C(=O)Nc3nc(Br)ccc3C)C[C@@]3(Cn4cc(C5CC5)nn4)C[C@@H]23)c2ccc(-c3cnc(C)nc3)cc12` [Compound 201, (1R,3S,5R)-2-(2-(3-acetyl-5-(2-methylpyrimidin-5-yl)-1H-indazol-1-yl)acetyl)-N-(6-bromo-3-methylpyridin-2-yl)-5-((4-cyclopropyl-1H-1,2,3-triazol-1-yl)methyl)-2-azabicyclo[3.1.0]hexane-3-carboxamide], the 50% inhibitory concentration (IC50) was under 1000 nM.
In the case of `CC(=O)c1nn(CC(=O)N2[C@H](C(=O)Nc3nc(Br)ccc3C)C[C@@]3(Cn4cc([Si](C)(C)C)nn4)C[C@@H]23)c2ccc(-c3cnc(C)nc3)cc12` [Compound 202, (1R,3S,5R)-2-(2-(3-acetyl-5-(2-methylpyrimidin-5-yl)-1H-indazol-1-yl)acetyl)-N-(6-bromo-3-methylpyridin-2-yl)-5-((4-(trimethylsilyl)-1H-1,2,3-triazol-1-yl)methyl)-2-azabicyclo[3.1.0]hexane-3-carboxamide], the half-inhibitory concentration (IC50) was under 1000 nM.
As for `CC(=O)c1nn(CC(=O)N2[C@H](C(=O)Nc3nc(Br)ccc3C)C[C@@]3(Cn4ccnn4)C[C@@H]23)c2ccc(-c3cnc(C)nc3)cc12` [Compound 203, (1R,3S,5R)-5-((1H-1,2,3-triazol-1-yl)methyl)-2-(2-(3-acetyl-5-(2-methylpyrimidin-5-yl)-1H-indazol-1-yl)acetyl)-N-(6-bromo-3-methylpyridin-2-yl)-2-azabicyclo[3.1.0]hexane-3-carboxamide], the half-maximal inhibitory concentration (IC50) is under 1000 nM.
Regarding `CC(=O)c1nn(CC(=O)N2[C@H](C(=O)Nc3nc(Br)ccc3CN3CC4(COC4)C3)C[C@@]3(C)C[C@@H]23)c2ccc(-c3cnc(C)nc3)cc12` [Compound 204], the IC50 is under 1000 nM.
